From patent US20240409585A1, “MACROCYCLIC IMMUNOMODULATORS” (priority 2021, published 2024)
Bridge positions count the residues as written; N and C are the ends. Square brackets hold non-standard residues; d marks the D form. Peptide text beside a SMILES is read from it. Bip = N[C@@H](Cc1ccc(-c2ccccc2)cc1)C(=O)O; Cit = NC(=O)NCCC[C@H](N)C(=O)O; NMeA = CN[C@@H](C)C(=O)O; Dab = NCC[C@H](N)C(=O)O

target: T1, PE-labeled human PD-L1-Ig binding to Jurkat cell line over-expressing human PD-1 (Jurkat-PD-1) (Homo sapiens, UniProt Q15116); assay: Jurkat-PD-1 Cell Binding High-Content Screening Assay (CBA): Method 1; details: Jurkat-hPD-1 cells, PE-labeled PD-L1-Ig 20 nM final; read-out: Jurkat HPDL1 PD1 IC50 (uM) (Method 1)
T1 construct: expressed in transfected cells; host or cells: Jurkat
T1 sequence (Q15116 25-288): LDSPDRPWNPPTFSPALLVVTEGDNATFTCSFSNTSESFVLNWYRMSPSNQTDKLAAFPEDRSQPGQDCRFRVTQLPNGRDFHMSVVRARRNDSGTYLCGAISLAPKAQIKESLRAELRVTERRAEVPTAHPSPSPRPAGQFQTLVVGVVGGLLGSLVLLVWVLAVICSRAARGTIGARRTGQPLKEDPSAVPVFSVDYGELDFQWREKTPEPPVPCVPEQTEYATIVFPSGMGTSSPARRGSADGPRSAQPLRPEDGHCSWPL

| SMILES | IC50 |
| --- | --- |
| CC(C)C[C@@H]1NC(=O)[C@H](CCCCN)NC(=O)[C@@H](CC(C)C)NC(=O)[C@H](C)N(C)C(=O)[C@H](CCCNC(N)=O)NC(=O)[C@H](Cc2ccc(-c3ccccc3)cc2)NC(=O)[C@H](C(C)C)NC(=O)[C@H](Cc2c[nH]c3ccccc23)NC(=O)[C@H](CC(=O)O)NC(=O)[C@H](Cc2ccc(O)cc2)NC(=O)[C@H](CC(N)=O)NC(=O)CSC[C@@H](C(=O)N[C@@H](C)C(N)=O)NC(=O)[C@H](CO)NC(=O)[C@H](C(C)C)NC1=O [Compound 1473] ({CH2CO}-NYDWV[Bip][Cit][NMeA][dL]KLVSCA-NH2; thioether N-14) | 0.04 µM |
| CC(C)C[C@@H]1NC(=O)[C@H](CCCCN)NC(=O)[C@@H](CC(C)C)NC(=O)[C@H](C)N(C)C(=O)[C@H](CCCNC(N)=O)NC(=O)[C@H](Cc2ccc(-c3ccccc3)cc2)NC(=O)[C@H](C(C)C)NC(=O)[C@H](Cc2c[nH]c3ccccc23)NC(=O)[C@H](CC(=O)O)NC(=O)[C@H](Cc2ccc(O)cc2)NC(=O)[C@H](CC(N)=O)NC(=O)CSC[C@@H](C(=O)NCC(N)=O)NC(=O)[C@H](CO)NC(=O)[C@H](C(C)C)NC1=O [Compound 1474] ({CH2CO}-NYDWV[Bip][Cit][NMeA][dL]KLVSCG-NH2; thioether N-14) | 0.08 µM |
| CC(C)C[C@@H]1NC(=O)[C@H](CCCCN)NC(=O)[C@@H](CC(C)C)NC(=O)[C@H](C)N(C)C(=O)[C@H](CCCNC(N)=O)NC(=O)[C@H](Cc2ccc(-c3ccccc3)cc2)NC(=O)[C@H](C(C)C)NC(=O)[C@H](Cc2c[nH]c3ccccc23)NC(=O)[C@H](CC(=O)O)NC(=O)[C@H](Cc2ccc(O)cc2)NC(=O)[C@H](CC(N)=O)NC(=O)CSC[C@@H](C(=O)NCC(N)=O)NC(=O)[C@H]([C@@H](C)O)NC(=O)[C@H](C(C)C)NC1=O [Compound 1475] ({CH2CO}-NYDWV[Bip][Cit][NMeA][dL]KLVTCG-NH2; thioether N-14) | 0.05 µM |
| CC(C)C[C@@H]1NC(=O)[C@H](Cc2c[nH]c3ccccc23)NC(=O)[C@H](CC(=O)O)NC(=O)[C@H](Cc2ccc(O)cc2)NC(=O)[C@H](Cc2ccccc2)NC(=O)CSC[C@@H](C(=O)NCC(N)=O)NC(=O)[C@H]([C@@H](C)O)NC(=O)[C@H](C(C)C)NC(=O)[C@H](CC(C)C)NC(=O)[C@H](CC(N)=O)NC(=O)[C@@H](C)NC(=O)[C@H](C)N(C)C(=O)[C@H](C(C)C)NC(=O)[C@H](Cc2ccc(-c3ccccc3)cc2)NC1=O [Compound 1476] ({CH2CO}-FYDWL[Bip]V[NMeA][dA]NLVTCG-NH2; thioether N-14) | 0.06 µM |

The next compounds have a lower IC50 than those just listed; values first:

| IC50 | SMILES |
| --- | --- |
| 0.01 µM | CC(C)C[C@@H]1NC(=O)[C@H](Cc2c[nH]c3ccccc23)NC(=O)[C@H](CC(=O)O)NC(=O)[C@H](Cc2ccc(O)cc2)NC(=O)[C@H](Cc2ccccc2)NC(=O)CSC[C@@H](C(=O)NCC(N)=O)NC(=O)[C@H]([C@@H](C)O)NC(=O)[C@H](C(C)C)NC(=O)[C@H](CC(C)C)NC(=O)[C@H](CCN)NC(=O)[C@@H](CC(C)C)NC(=O)[C@H](C)N(C)C(=O)[C@H](C(C)C)NC(=O)[C@H](Cc2ccc(-c3ccccc3)cc2)NC1=O [Compound 1469] ({CH2CO}-FYDWL[Bip]V[NMeA][dL][Dab]LVTCG-NH2; thioether N-14) |
| 0.01 µM | CC(C)C[C@@H]1NC(=O)[C@H](Cc2c[nH]c3ccccc23)NC(=O)[C@H](CC(=O)O)NC(=O)[C@H](Cc2ccc(O)cc2)NC(=O)[C@H](Cc2ccccc2)NC(=O)CSC[C@@H](C(=O)NCC(N)=O)NC(=O)[C@H](CO)NC(=O)[C@H](C(C)C)NC(=O)[C@H](CC(C)C)NC(=O)[C@H](CCN)NC(=O)[C@@H](CC(C)C)NC(=O)[C@H](C)N(C)C(=O)[C@H](C(C)C)NC(=O)[C@H](Cc2ccc(-c3ccccc3)cc2)NC1=O [Compound 1472] ({CH2CO}-FYDWL[Bip]V[NMeA][dL][Dab]LVSCG-NH2; thioether N-14) |
